Test system: patient derived PDCL5 cells of metastatic pancreatic cancer
Test: Cell killing of patient-derived pancreatic cancer PDCL5 cells by gemcitabine, LB-100 or the combination
Type: cell-based, human
Conditions: single agent: gemcitabine 1.0 uM or LB-100 5 uM, 72 hours (FIG. 3E)
Protocol: FIGS. 3A-3E: Analysis of the antiapoptotic function of cis-ATR in human cancer via TCGA data mining. […] FIGS. 3F-3G show two patient-derived pancreatic cancer cells, PDCL5 and PDCL15, subjected to MTT assays after treating with the PDAC therapy drug gemcitabine (1.0 μM or 0.3 μM, respectively) and PP2A inhibitor LB-100 (5 μM), alone or in combination, for 72 hours. PANC-1 cells were treated with gemcitabine (1.0 μM) or FOLFIRINOX (5-FU, 10 μM, oxaliplatin, 0.1 μM, leucovorin, 0.15 μM, irinotecan, 0.1 μM), alone or in combination with LB-100 (1.0 μM), for 72 hours before the MTT assay.
To further validate the above observations are not at random, the 5-year survival probability (SP) of different subgroups was calculated for all 17 cancer types, and paired Wilcoxon rank-sum tests were performed. […] The SP difference of DAPK1 expression level is not significant, likely because DAPK indirectly regulates cis-ATR while ATR is a direct substrate of Pin1 and PP2A. […] This remains true even for the analysis regardless of cancer types (FIG. 3D). […]
MTT viability assays were performed according to the manufacturer's specifications (Cayman's MTT Proliferation Assay kit #10009365), and […]. […]

Question: With `Nc1ccn([C@@H]2O[C@H](CO)[C@@H](O)C2(F)F)c(=O)n1` [Gemcitabine, gemcitabine] as the molecule, how does the cell death induced read?
Answer: The cell death induced was “little cell death”.

Question: For `CN1CCN(C(=O)C2C3CCC(O3)C2C(=O)O)CC1` (centres unmarked) [LB-100], which cell death induced is on record?
Answer: The cell death induced was “little cell death”.

Reference: patent US20240238282A1, “METHODS OF TREATING CANCER AND ISCHEMIA DISEASES BY INHIBITION AND INTERVENTION OF ATR PROLYL ISOMERIZATION” (The University of Toledo, priority 2022, published 2024)
